{
  "source": "paper PMC7035281",
  "about": "(Nature Communications, 2020)",
  "key": {"[1]": {"target": "T1, LeuT (LeuTWT) (Aquifex aeolicus, UniProt O67854, W8A)", "T1 construct": "gene snf; full length, C-terminal thrombin site and 8xHis tag (pET16b), E. coli C41(DE3), purified in DDM; crystal of W8A a dimer in the asymmetric unit, residues 13-511 and 13-507 visible; smFRET variant from pQO18-TEV vector, His-tagged", "assay": "scintillation proximity saturation binding, purified protein in DDM; X-ray structure […] Å"}, "[2]": {"target": "T2, LeuT (LeuTWT) (Aquifex aeolicus, UniProt O67854)", "T2 construct": "gene snf; full length, C-terminal thrombin site and 8xHis tag (pET16b), E. coli C41(DE3), purified in DDM; crystal of W8A a dimer in the asymmetric unit, residues 13-511 and 13-507 visible; smFRET variant from pQO18-TEV vector, His-tagged", "assay": "scintillation proximity saturation binding, purified protein in DDM"}},
  "data": [
    {"smiles": "N[C@@H](Cc1ccccc1)C(=O)O", "note": "[L-Phe]", "values": [
      {"measurement": "Kd", "setting": "[1]", "value": "0.796 ± 0.139", "unit": "µM"},
      {"measurement": "Kd", "setting": "[2]", "value": "0.898 ± 1.13", "unit": "µM"}
    ]}
  ]
}
